From patent US9682977B2, “Bicyclic heteroaryl indole analogues useful as ROR gamma modulators” (Glenmark Pharmaceuticals S.A., priority 2013, dated 2017) come the findings set out here.

pIC50: −log10 of the molar value. Like-named read-outs stand apart in the source and are kept apart here. A value given as a limit tells only on which side of the number the result lay.

The target in this assay is T1, GST-tagged ROR gamma ligand binding domain (LBD) (Homo sapiens, UniProt P51449).
T1 construct: purchased Invitrogen
T1 sequence (P51449 269-508 limits assumed): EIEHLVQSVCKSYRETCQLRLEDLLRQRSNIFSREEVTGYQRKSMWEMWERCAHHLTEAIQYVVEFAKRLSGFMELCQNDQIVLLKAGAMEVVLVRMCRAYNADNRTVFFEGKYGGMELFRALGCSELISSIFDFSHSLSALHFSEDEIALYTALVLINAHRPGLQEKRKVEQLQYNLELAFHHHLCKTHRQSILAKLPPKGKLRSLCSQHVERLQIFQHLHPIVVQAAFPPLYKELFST
Nature of the assay: TR-FRET assay for ROR gamma (Lantha Screen, co-activator peptide recruitment). The note with it: for inhibition at 1 µM: read-out: % inhibition at 1 μM; for inhibition at 10 µM: read-out: % inhibition at 10 μM. Format: biochemical. For orientation: Time-resolved FRET reads energy transfer from a long-lived donor to a nearby acceptor.

Setting [1] is: class symbols, from dose response curve, read-out: IC50 value.
Setting [2] is: compound concentration 1 μM, TR-FRET ratio 520/495, percent of control.
[3] abbreviates: compound concentration 10 μM, TR-FRET ratio 520/495, percent of control.

The term pIC50 denotes −log10 of the IC50, conventionally taken in molar units. Broadly, the inhibition is how much of the control response was suppressed.

Regarding `O=C(O)c1ccc(-n2nc(Oc3c(Cl)cccc3Cl)c3ccccc32)cc1` [Example 5, 4-[3-(2,6-Dichlorophenoxy)-1H-indazol-1-yl]benzoic acid], the pIC50 under setting [1] is more than 7.30. Besides, the inhibition at 1 µM under setting [2] is 98.4%. Also, under setting [3], the inhibition at 10 µM stood at 99%.

As to `CCOC(=O)c1ccc(-n2nc(Oc3c(Cl)cccc3C(F)(F)F)c3ccccc32)c(F)c1` [Example 45, Ethyl 4-{3-[2-chloro-6-(trifluoromethyl)phenoxy]-1H-indazol-1-yl}-3-fluorobenzoate], the pIC50 under setting [1] was 7.00 to 7.30. Further, the inhibition at 1 µM under setting [2] was 97.9%. Besides, the inhibition at 10 µM under setting [3] stood at 93.7%.

As to `O=C(O)c1ccc(-n2nc(Oc3c(Cl)cccc3C(F)F)c3cccc(F)c32)c(F)c1` [Example 12, 4-{3-[2-Chloro-6-(difluoromethyl)phenoxy]-7-fluoro-1H-indazol-1-yl}-3-fluorobenzoic acid], the pIC50 under setting [1] was more than 7.30. The inhibition at 1 µM under setting [2] was 94.4%. Further, under setting [3], the inhibition at 10 µM worked out at 95.1%.

In the case of `O=C(O)c1ccc(-n2nc(C(=O)c3c(Cl)cccc3C(F)(F)F)c3ccccc32)cc1` [Example 34, 4-(3-{[2-Chloro-6-(trifluoromethyl)phenyl]carbonyl}-1H-indazol-1-yl)-benzoic acid], the pIC50 under setting [1] is more than 7.30. Moreover, the inhibition at 1 µM under setting [2] was found to be 96.9%. Moreover, the inhibition at 10 µM under setting [3] amounted to 92%.

Turning to `O=C(O)c1ccc(-n2nc(Oc3c(Cl)cccc3C(F)(F)F)c3ccccc32)c(F)c1` [Example 7, 4-{3-[2-Chloro-6-(trifluoromethyl)phenoxy]-1H-indazol-1-yl}-3-fluorobenzoic acid], the pIC50 under setting [1] was more than 7.30. Further, under setting [2], the inhibition at 1 µM is 95.3%. Moreover, the inhibition at 10 µM under setting [3] is 94.8%.

In the case of `O=C(O)c1ccc(-n2nc(Oc3c(Cl)cccc3C3CC3)c3cccc(F)c32)c(F)c1` [Example 14, 4-[3-(2-Chloro-6-cyclopropylphenoxy)-7-fluoro-1H-indazol-1-yl]-3-fluorobenzoic acid], under setting [1], the pIC50 is more than 7.30. The inhibition at 1 µM under setting [2] came out at 91.4%. Further, under setting [3], the inhibition at 10 µM came out at 91.2%.

Regarding `O=C(O)c1ccc(-n2cc(C(=O)c3c(F)cccc3F)c3ccccc32)cc1` [Example 18, 4-{3-[(2,6-Difluorophenyl)carbonyl]-1H-indol-1-yl}benzoic acid], the negative logarithm of the IC50 (pIC50) is 7.00 to 7.30, the inhibition at 1 µM was 81% and the inhibition at 10 µM is 94.5%.

Consider `CCCOC(=O)c1ccc(-n2cc(C(=O)c3c(Cl)cccc3Cl)c3cccc(F)c32)c(F)c1` [Example 43, Propyl 4-[3-(2,6-dichloro-benzoyl)-7-fluoro-1H-indol-1-yl]-3-fluorobenzoate], for which the inhibition at 1 µM is 6.99% and the inhibition at 10 µM is 1.02%.

Consider `O=C(O)c1ccc(-n2nc(Oc3c(Cl)cccc3Cl)c3cccc(F)c32)c(F)c1` [Example 11, 4-[3-(2,6-Dichlorophenoxy)-7-fluoro-1H-indazol-1-yl]-3-fluorobenzoic acid], for which the pIC50 under setting [1] is more than 7.30. The inhibition at 1 µM under setting [2] came out at 98.1%. The inhibition at 10 µM under setting [3] is 97.8%.

Turning to `O=C(O)c1ccc(-n2nc(C(=O)c3ccccc3)c3ccccc32)cc1` [Example 28, 4-[3-(Phenylcarbonyl)-1H-indazol-1-yl]benzoic acid], under setting [2], the inhibition at 1 µM was 30.2%. In addition, the inhibition at 10 µM under setting [3] was found to be 62.9%.

For the compound `O=C(O)c1ccc(-n2cc(C(=O)c3c(Cl)cccc3Cl)c3ccccc32)cc1` [Example 16, 4-{3-[(2,6-Dichlorophenyl)carbonyl]-1H-indol-1-yl}benzoic acid], the pIC50 was more than 7.30, the inhibition at 1 µM turned out to be 96% and the inhibition at 10 µM came to 97.2%.

For the compound `O=C(O)c1ccc(-n2nc(Oc3c(Cl)cccc3C3CC3)c3ccccc32)c(F)c1` [Example 13, 4-[3-(2-Chloro-6-cyclopropylphenoxy)-1H-indazol-1-yl]-3-fluorobenzoic acid], the pIC50 under setting [1] is more than 7.30. Under setting [2], the inhibition at 1 µM was found to be 91.7%. Moreover, the inhibition at 10 µM under setting [3] turned out to be 91.7%.
